Drawing on ChEMBL document CHEMBL1137415, “Structure-activity relationship of 6-methylidene penems bearing 6,5 bicyclic heterocycles as broad-spectrum beta-lactamase inhibitors: evidence for 1,4-thiazepine intermediates with C7 R stereochemistry by computational methods” (J Med Chem, 2006), this text covers MIC, IC50 and ED50 for 15 compounds.

In one test the test system is Enterobacter cloacae. The test can be described thus: Antibacterial activity against Enterobacter cloacae expressing P99. In kind it is functional.
For a further test, the system named is Pseudomonas aeruginosa. In words: Antibacterial activity against Pseudomonas aeruginosa expressing AmpC. Format: functional.
In another test the test system is Serratia marcescens. The test can be described thus: Antibacterial activity against Serratia marcescens expressing AmpC and Smel. Format: functional.
Test [1] in a line: Inhibition of SHV1.
A short description of test [2]: Inhibition of GC1.
The target in another test is Beta-lactamase TEM (Escherichia coli, UniProt P62593). The test can be described thus: Inhibition of Escherichia coli TEM1.
Sequence of Beta-lactamase TEM (P62593 whole entry): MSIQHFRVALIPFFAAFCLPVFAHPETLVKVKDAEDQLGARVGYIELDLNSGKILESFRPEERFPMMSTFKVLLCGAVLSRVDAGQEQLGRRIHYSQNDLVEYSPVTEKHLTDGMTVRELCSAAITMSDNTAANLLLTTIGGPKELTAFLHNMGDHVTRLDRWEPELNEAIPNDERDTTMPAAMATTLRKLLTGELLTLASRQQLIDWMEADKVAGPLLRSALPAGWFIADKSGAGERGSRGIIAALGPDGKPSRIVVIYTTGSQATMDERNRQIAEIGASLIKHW
Test [3] addresses T1, Imipenem-hydrolyzing beta-lactamase (Enterobacter cloacae, UniProt P52663).
T1 sequence (P52663 whole entry): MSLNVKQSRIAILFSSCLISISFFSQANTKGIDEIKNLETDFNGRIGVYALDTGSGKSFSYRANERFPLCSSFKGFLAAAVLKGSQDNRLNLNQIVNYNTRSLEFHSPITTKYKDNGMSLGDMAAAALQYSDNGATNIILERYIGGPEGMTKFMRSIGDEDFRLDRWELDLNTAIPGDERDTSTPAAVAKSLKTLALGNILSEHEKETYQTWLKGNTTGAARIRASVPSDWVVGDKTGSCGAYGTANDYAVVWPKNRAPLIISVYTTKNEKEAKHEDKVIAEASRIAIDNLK
The test can be described thus: Inhibition of Enterobacter cloacae Imi1.

Test [4] has as its target Metallo-beta-lactamase type 2 (Bacteroides fragilis, UniProt P25910). The test can be described thus: Inhibition of Bacteroides fragilis CcrA.
Test [5] addresses Beta-lactamase TEM (Escherichia coli) (UniProt P62593). In words: Antibacterial activity against Escherichia coli expressing TEM1. Format: functional.
The subject of test [6] is Klebsiella aerogenes. In words: Antibacterial activity against Enterobacter aerogenes expressing AmpC in iv dosed murine acute lethal infection model in presence of piperacillin. In kind it is functional.
In test [7] the test system is Escherichia coli. In words: Antibacterial activity against Escherichia coli expressing TEM1 in iv dosed murine acute lethal infection model in presence of piperacillin. Format: functional.
The target of another test is Beta-lactamase (Enterobacter cloacae, UniProt P05364).
Sequence of Beta-lactamase (P05364 whole entry): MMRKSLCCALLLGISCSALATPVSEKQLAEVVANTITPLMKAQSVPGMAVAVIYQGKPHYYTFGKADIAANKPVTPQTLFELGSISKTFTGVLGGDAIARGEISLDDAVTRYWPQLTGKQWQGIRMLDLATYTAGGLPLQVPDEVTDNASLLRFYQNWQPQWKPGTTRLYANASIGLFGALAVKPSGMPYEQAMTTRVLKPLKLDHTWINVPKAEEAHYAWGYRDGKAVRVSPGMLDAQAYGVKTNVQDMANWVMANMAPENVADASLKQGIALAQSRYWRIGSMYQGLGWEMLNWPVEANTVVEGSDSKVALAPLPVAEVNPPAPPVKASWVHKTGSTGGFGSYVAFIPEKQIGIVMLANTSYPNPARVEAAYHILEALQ
In test [8] the test system is Escherichia coli. The test can be described thus: Antibacterial activity against Escherichia coli expressing TEM1 in iv dosed murine acute lethal infection model. In kind it is functional.
The subject of test [9] is Klebsiella aerogenes. In words: Antibacterial activity against Enterobacter aerogenes expressing AmpC in iv dosed murine acute lethal infection model. In kind it is functional.

The structures appear in SMILES notation. ≈ marks a conversion by molar mass, not a printed value.

Sequence of Metallo-beta-lactamase type 2 (P25910 whole entry): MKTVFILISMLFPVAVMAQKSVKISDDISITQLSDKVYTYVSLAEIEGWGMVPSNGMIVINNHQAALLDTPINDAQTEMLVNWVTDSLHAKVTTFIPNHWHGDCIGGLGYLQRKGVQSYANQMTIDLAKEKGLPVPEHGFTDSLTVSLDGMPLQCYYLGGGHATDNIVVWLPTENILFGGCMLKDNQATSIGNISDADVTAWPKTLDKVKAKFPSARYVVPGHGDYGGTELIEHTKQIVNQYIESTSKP
Sequence of Beta-lactamase TEM (Escherichia coli) (P62593 whole entry): as the sequence (P62593 whole entry) above

Regarding `O=C([O-])C1=CS[C@@H]2/C(=C/c3cn4c(n3)COCC4)C(=O)N12.[Na+]`, the MIC was 8 µg/mL in the test on Enterobacter cloacae, 1 µg/mL in the test on Pseudomonas aeruginosa, 1 µg/mL in the test on Serratia marcescens and 2 µg/mL in [5]. Further, the IC50 in [1] came to 9 nM; in test [2], 6.2 nM; at Beta-lactamase TEM it was 0.4 nM; in [3] it was 8 nM; in test [4] it was 66 nM; at Beta-lactamase, 5 nM. Also, the ED50 turned out to be 96 mg/kg in the test with Klebsiella aerogenes [6] and 23 mg/kg with Escherichia coli [7].

Consider `CCN1CCN(C(=O)NC(C(=O)N[C@@H]2C(=O)N3C2SC(C)(C)[C@@H]3C(=O)O)c2ccccc2)C(=O)C1=O` (single isomer, unassigned) [PIPERACILLIN], for which the ED50 is 165 mg/kg in the test with Escherichia coli [8] and 421 mg/kg with Klebsiella aerogenes [9].

Turning to `COc1ccc(CN2CCc3sc(/C=C4/C(=O)N5C(C(=O)[O-])=CS[C@H]45)cc3C2)cc1.[Na+]`, the MIC in the test with Enterobacter cloacae was found to be 32 µg/mL; against Pseudomonas aeruginosa, 32 µg/mL; against Serratia marcescens, 1 µg/mL; in test [5], 8 µg/mL. The IC50 turned out to be 2 nM at Beta-lactamase TEM, 27 nM in test [3], 78 nM in [4] and 15 nM at Beta-lactamase.

On to `O=C([O-])C1=CS[C@@H]2/C(=C\c3cc4n(n3)CCNC4)C(=O)N12.[Na+]`, for which the MIC is 16 µg/mL with Enterobacter cloacae, 0.5 µg/mL with Pseudomonas aeruginosa, 1 µg/mL in the test on Serratia marcescens and 4 µg/mL in test [5]. Besides, the IC50 was found to be 1 nM on Beta-lactamase TEM, 123 nM in test [3] and 3 nM on Beta-lactamase. The ED50 in the test with Escherichia coli [7] was 30 mg/kg.

Regarding `O=C([O-])C1=CS[C@@H]2/C(=C\c3cc4n(n3)CCSC4)C(=O)N12.[Na+]`, the MIC in the test with Enterobacter cloacae is 8 µg/mL; in the test with Pseudomonas aeruginosa, 2 µg/mL; in the test with Serratia marcescens, 0.5 µg/mL; in [5] it was 4 µg/mL. The IC50 was found to be 18 nM in [3] and 1 nM at Beta-lactamase. For the same compound, the ED50 is 123 mg/kg in the test on Klebsiella aerogenes [6] and 31 mg/kg in the test with Escherichia coli [7].

Consider `O=C([O-])C1=CS[C@@H]2/C(=C\c3cc4n(n3)CCCC4)C(=O)N12.[Na+]`, for which the MIC in the test with Enterobacter cloacae is 4 µg/mL; with Pseudomonas aeruginosa, 4 µg/mL; with Serratia marcescens, 1 µg/mL; in test [5], 2 µg/mL. For the same compound, the IC50 against Beta-lactamase TEM came to 2 nM; in [3], 90 nM; at Beta-lactamase, 3 nM. For the same compound, the values for the ED50 in the test on Klebsiella aerogenes [6] and in the test with Escherichia coli [7] were 86 mg/kg and 28 mg/kg, respectively.

As to `O=C([O-])C1=CS[C@@H]2/C(=C\c3cn4c(n3)CSCC4)C(=O)N12.[Na+]`, the MIC (in the test with Enterobacter cloacae; in the test on Pseudomonas aeruginosa; with Serratia marcescens; in [5]) was 8 µg/mL throughout. Besides, the IC50 against Beta-lactamase TEM was found to be 3 nM; in test [3], 2300 nM; in test [4] it was 8 nM; on Beta-lactamase, 2 nM.

As for `O=C([O-])C1=CS[C@@H]2/C(=C/c3cn4c(n3)CNCC4)C(=O)N12.[Na+]`, the MIC in the test with Enterobacter cloacae worked out at 2 µg/mL; with Pseudomonas aeruginosa, 16 µg/mL; with Serratia marcescens, 1 µg/mL; in [5], 2 µg/mL. Further, the IC50 against Beta-lactamase TEM was determined as 5 nM; in test [3], 28 nM; in [4], 320 nM; against Beta-lactamase it was 6 nM. Moreover, the ED50 in the test on Escherichia coli [7] was found to be 27 mg/kg.

Regarding `O=C([O-])C1=CS[C@@H]2/C(=C\c3cc4c(s3)CCN(Cc3cccnc3)C4)C(=O)N12.[Na+]`, the MIC in the test on Enterobacter cloacae stood at 64 µg/mL; in the test on Pseudomonas aeruginosa it was 64 µg/mL; in the test on Serratia marcescens it was 1 µg/mL; in [5] it was 32 µg/mL. For the same compound, the IC50 against Beta-lactamase TEM was determined as 10 nM; in test [3] it was 40 nM.

`O=C([O-])C1=CS[C@@H]2/C(=C/c3cn4c(n3)CSCC4)C(=O)N12.[Na+]`: the MIC is 32 µg/mL against Enterobacter cloacae, 64 µg/mL against Pseudomonas aeruginosa, 4 µg/mL in the test on Serratia marcescens and 64 µg/mL in test [5]. Further, the IC50 was 730 nM at Beta-lactamase TEM, more than 10000 nM in test [3], 110 nM in test [4] and 420 nM against Beta-lactamase.

Take `C[C@]1(Cn2ccnn2)[C@H](C(=O)O)N2C(=O)C[C@H]2S1(=O)=O` [TAZOBACTAM]: the MIC against Enterobacter cloacae was 64 µg/mL (≈ 213 µM); against Pseudomonas aeruginosa, 64 µg/mL (≈ 213 µM); with Serratia marcescens, 1 µg/mL (≈ 3.33 µM); in test [5], 2 µg/mL (≈ 6.66 µM).

With `O=C([O-])C1=CS[C@@H]2/C(=C\c3cc4n(n3)CCCO4)C(=O)N12.[Na+]`, the MIC against Enterobacter cloacae was 4 µg/mL; with Pseudomonas aeruginosa, 1 µg/mL; with Serratia marcescens, 1 µg/mL; in [5], 4 µg/mL. In addition, the IC50 came to 6 nM against Beta-lactamase TEM, 413 nM in [3], 140 nM in [4] and 5 nM at Beta-lactamase. Besides, the ED50 with Escherichia coli [7] was 90 mg/kg.

Regarding `O=C([O-])C1=CS[C@@H]2/C(=C\c3cc4n(n3)CCOC4)C(=O)N12.[Na+]`, the MIC was determined as 8 µg/mL in the test on Enterobacter cloacae, 2 µg/mL against Pseudomonas aeruginosa, 1 µg/mL in the test with Serratia marcescens and 4 µg/mL in [5]. Also, the values for the IC50 (on Beta-lactamase TEM; in test [3]; at Beta-lactamase) were 4 nM, 20 nM and 6 nM, respectively. Moreover, in the test on Escherichia coli [7], the ED50 came to 19 mg/kg.

Take `CN1CCn2cc(/C=C3/C(=O)N4C(C(=O)[O-])=CS[C@H]34)nc2C1.[Na+]`: the MIC in the test on Enterobacter cloacae came out at 1 µg/mL; against Pseudomonas aeruginosa, 4 µg/mL; in the test with Serratia marcescens it was 1 µg/mL; in test [5], 16 µg/mL. Also, the results for the IC50 (against Beta-lactamase TEM; in [3]; against Beta-lactamase) were 4 nM, 22 nM and 6 nM, respectively.

In the case of `O=C([O-])C1=CS[C@@H]2/C(=C\c3cc4n(n3)CCS(=O)(=O)C4)C(=O)N12.[Na+]`, the MIC is 16 µg/mL in the test on Enterobacter cloacae, 2 µg/mL in the test with Pseudomonas aeruginosa, 1 µg/mL with Serratia marcescens and 4 µg/mL in [5]. The IC50 on Beta-lactamase TEM was determined as 1 nM; in test [3], 56 nM; in test [4], 43 nM; against Beta-lactamase, 2 nM. The ED50 in the test on Escherichia coli [7] stood at 64 mg/kg.

As usually defined, the IC50 is the concentration that inhibits the measured activity by half. Low readings indicate greater potency in that assay, high ones weaker potency in that assay. Broadly, the ED50 is the dose that gives a 50% effect, or the effect in half of the subjects.
